Assay results taken from patent US20060058350A1, “Alkynyl-substituted azasugar derivative and drug containing the same as the active ingredient” (Carna Biosciences, Inc., priority 2002, published 2006).

Assays:
Type in all cases: biochemical
MMP-9 = target: T1, MMP-9 (Homo sapiens, UniProt P14780); experiment: Measurement of matrix metalloprotease (MMP) inhibitory activity, MMP-9, fluorescence quenching peptide substrate; settings: read-out: Ki MMP9
T1 construct: A DNA fragment coding for catalytic regions in MMP-1 and MMP-9; histidine tag (N); made in house; host or cells: E. coli
T1 sequence (P14780 107-444 limits assumed): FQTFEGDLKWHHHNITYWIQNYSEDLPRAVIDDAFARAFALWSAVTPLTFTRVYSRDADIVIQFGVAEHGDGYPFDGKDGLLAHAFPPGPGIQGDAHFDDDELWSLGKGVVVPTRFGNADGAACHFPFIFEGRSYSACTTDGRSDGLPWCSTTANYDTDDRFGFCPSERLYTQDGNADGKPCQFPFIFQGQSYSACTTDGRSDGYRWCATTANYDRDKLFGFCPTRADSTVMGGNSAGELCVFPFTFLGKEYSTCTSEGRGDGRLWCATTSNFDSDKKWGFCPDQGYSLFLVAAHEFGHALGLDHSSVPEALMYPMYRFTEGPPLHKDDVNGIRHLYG
Experimental: (§1) A DNA fragment coding for catalytic regions in MMP-1 and MMP-9 was amplified by a PCR method with cDNA prepared from HT-1080 cells derived from human fibrosarcoma. In the same manner, a DNA fragment containing a pro-region and a catalyst region in MMP-3 was also prepared. The amplified DNA fragment was cloned into a commercially available expression vector which was designed to allow a histidine tag to add to the N-terminal, and then transformed into E. coli. The resulting transformants were cultured and a recombinant MMP was purified from a cell lysate using Ni-NTA regin (QIAGEN INC.). Recombinant MMP-3 was further activated by reacting with 1 mM para-aminophenyl mercury acetate at 37° C. for one hour.
(§2) The inhibitory activity was measured according to the method by Night et al. [FEBS Lett. 296, p 263 (1992)] or the method by Nagase et al. [J. Biol. Chem. 269, p 20952 (1994)] using a 96-half well black microplate. A solution prepared by dissolving each of test compounds (a) to (f) in dimethyl sulfoxide was diluted with a reaction buffer [50 mM Tris-HCl (pH 7.5) buffer containing 150 mM NaCl, 10 mM CaCl2, 0.05% Brij-35®] and then 25 μL of the dilute solution was added in a well.
(§3) After 25 μL of a MMP solution diluted with the reaction buffer was added thereto, the mixture was incubated at 37° C. for 10 minutes. Then, the reaction was initiated by adding 50 μL of a 10 μM fluorescence quenching peptide substrate prepared from the reaction buffer. As the fluorescence quenching peptide substrate, MCA-Pro-Leu-Gly-Leu-DPA-Ala-Arg-NH2 (MCA=7-methoxycoumarin-4-acetyl and DPA=N-3-(2,4-dinitrophenyl)-L-2,3-diaminopropionyl) were used for MMP-1 and MMP-9, and MCA-Arg-Pro-Lys-Pro-Val-Nva-Trp-Arg-Lys (DNP)-NH2 (DNP=2,4-dinitrophenyl) was used for MMP-3. A fluorescence intensity (excitation 320/fluoresecence 405 nm) immediately after the initiation of the reaction and a fluorescence intensity after the reaction at 37° C. (for 2 hours for MMP-1 and MMP-3, for 3 hours for MMP-9) were measured and a difference in fluorescence intensity was taken as an indicator of enzymatic activity. The inhibition rate (%) at each concentration of an inhibitor was calculated and an IC50 value was determined from the dose-response curve. From this IC50 value and previously determined Km value for a […] substrate, a Ki value was calculated using GraphPad Prism software (GraphPad Software, Inc.).

MMP-1 = target: T2, MMP-1 (Homo sapiens, UniProt P03956); experiment: Measurement of matrix metalloprotease (MMP) inhibitory activity, MMP-1, fluorescence quenching peptide substrate; settings: recombinant catalytic region of MMP-1; 37° C., 2 hours; Ki calculated from IC50 and Km; read-out: Ki MMP1
T2 construct: A DNA fragment coding for catalytic regions in MMP-1 and MMP-9; histidine tag (N); made in house; host or cells: E. coli
T2 sequence (P03956 98-276 limits assumed): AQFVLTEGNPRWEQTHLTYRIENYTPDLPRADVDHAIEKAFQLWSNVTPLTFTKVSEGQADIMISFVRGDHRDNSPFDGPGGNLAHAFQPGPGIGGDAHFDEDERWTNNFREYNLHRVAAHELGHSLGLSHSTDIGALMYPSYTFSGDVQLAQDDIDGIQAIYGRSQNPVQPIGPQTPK
Experimental: as §1, §2, §3

MMP-3 = target: T3, MMP-3 (Homo sapiens, UniProt P08254); experiment: Measurement of matrix metalloprotease (MMP) inhibitory activity, MMP-3, fluorescence quenching peptide substrate; settings: recombinant MMP-3 activated with para-aminophenyl mercury acetate; 37° C., 2 hours; Ki calculated from IC50 and Km; read-out: Ki MMP3
T3 construct: a DNA fragment containing a pro-region and a catalyst region in MMP-3 was also prepared; histidine tag (N); made in house; host or cells: E. coli
T3 sequence (P08254 100-272 limits assumed): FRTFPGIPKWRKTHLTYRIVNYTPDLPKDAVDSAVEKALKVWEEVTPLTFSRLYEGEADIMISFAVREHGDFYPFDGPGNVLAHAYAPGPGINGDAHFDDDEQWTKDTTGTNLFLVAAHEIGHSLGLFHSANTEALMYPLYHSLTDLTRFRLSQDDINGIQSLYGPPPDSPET
Experimental: as §1, §2, §3

[1] = target: T4, TNF-α converting enzyme (TACE) (Homo sapiens, UniProt P78536); experiment: Measurement of inhibitory activity against TNF-α converting enzyme (TACE), fluorescence quenching peptide substrate
T4 construct: a DNA fragment cording a signal region, a pro-region and a catalytic region was amplified by a PCR method; FLAG octapeptide (C); made in house; host or cells: insect cells (baculovirus, pFastBac)
T4 sequence (P78536 223-474 limits assumed): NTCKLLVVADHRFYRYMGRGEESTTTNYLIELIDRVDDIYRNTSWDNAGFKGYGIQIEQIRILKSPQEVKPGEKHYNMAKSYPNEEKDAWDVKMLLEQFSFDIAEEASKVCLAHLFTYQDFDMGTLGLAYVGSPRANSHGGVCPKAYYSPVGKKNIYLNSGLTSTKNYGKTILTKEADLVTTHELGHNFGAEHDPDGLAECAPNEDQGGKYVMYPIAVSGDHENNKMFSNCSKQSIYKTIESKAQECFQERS
Experimental: A full length cDNA for TACE was cloned from THP-1 cells derived from human acute monocytic leukemia and a DNA fragment cording a signal region, a pro-region and a catalytic region was amplified by a PCR method. An appropriate restriction enzyme recognizing sequence was added to both terminals of the amplified fragment and also a sequence of an antigenic octapeptide (FLAG™) tag was inserted in the 3′ terminal. A recombinant bacmid was prepared from the resulting amplified fragment using a pFastBac system (Life Technologies) and then transfected into insect cells to generate a recombinant baculovirus. Insect cells were infected with the recombinant baculovirus and the recombinant TACE released into culture supernatant was purified by an affinity gel column.
The inhibitory activity was measured according to the method by Van Dyke et al. [Bioorg. […] A solution prepared by dissolving each of test compounds (a) to (f) in dimethylsulfoxide was diluted with a reaction buffer [20 mM tris-HCl buffer (pH 7.5) containing 0.05% Brij-35®] and then 40 μL of the dilute solution was added in a well. […] The inhibition rate (%) at each concentration of an inhibitor was calculated and an IC50 value was determined from the dose-response curve. From this IC50 value and previously determined Km value for a TACE substrate, a Ki value was calculated using data processing software (GraphPad Prism™, GraphPad Software, Inc.).

Compound `CC#CCOc1ccc(S(=O)(=O)N2C[C@H](O)[C@H](O)[C@@H](OC)[C@@H]2C(=O)NO)cc1` [Compound (a), (2R,3S,4S,5S)-1-(4′-but-2′-ynyloxybenzenesulfonyl)-4,5-dihydroxy-3-methoxypiperidine-2-carboxylic acid hydroxamide] has a Ki (MMP-9) of over 0.79 µM, a Ki (MMP-1) of over 0.85 µM and a Ki (MMP-3) of over 0.65 µM. It also gave a Ki [1] of 0.0043 µM.
For `CC#CCOc1ccc(S(=O)(=O)N2C[C@H](O)[C@H](O)[C@@H](OCc3ccccc3)[C@@H]2C(=O)NO)cc1` [Compound (b), (2R,3S,4S,5S)-3-benzyloxy-1-(4′-but-2′-ynyloxybenzenesulfonyl)-4,5-dihydroxypiperidine-2-carboxylic acid hydroxamide], the Ki (MMP-9) was over 0.79 µM, the Ki (MMP-1) was over 0.85 µM and the Ki (MMP-3) was over 0.65 µM. For the same compound, the Ki [1] was 0.0094 µM.
For `CC#CCOc1ccc(S(=O)(=O)N2C[C@H](OC)[C@H](O)[C@@H](O)[C@@H]2C(=O)NO)cc1` [Compound (c), (2R,3S,4R,5S)-1-(4′-but-2′-ynyloxybenzenesulfonyl)-3,4-dihydroxy-5-methoxypiperidine-2-carboxylic acid hydroxamide], the Ki (MMP-9) was over 0.79 µM, the Ki (MMP-1) was over 0.85 µM and the Ki (MMP-3) was over 0.65 µM. For the same compound, the Ki [1] was 0.0024 µM.
`CC#CCOc1ccc(S(=O)(=O)N2C[C@H](O)[C@H](O)[C@@H](O)[C@@H]2C(=O)NO)cc1` [Compound (d), (2R,3S,4S,5S)-1-(4′-but-2′-ynyloxybenzenesulfonyl)-3,4,5-trihydroxy-piperidine-2-carboxylic acid hydroxamide] was tested, and the Ki (MMP-9) was over 0.79 µM, the Ki (MMP-1) was over 0.85 µM and the Ki (MMP-3) was 0.49 µM.
Work on `CC#CCOc1ccc(S(=O)(=O)N2C[C@H](O)[C@H](O)[C@@H](OCC)[C@@H]2C(=O)NO)cc1` [Compound (e), (2R,3S,4S,5S)-1-(4′-but-2′-ynyloxybenzenesulfonyl)-4,5-dihydroxy-3-ethoxypiperidine-2-carboxylic acid hydroxamide] yielded a Ki (MMP-9) of over 0.79 µM, a Ki (MMP-1) of over 0.85 µM and a Ki (MMP-3) of over 0.65 µM. For the same compound, the Ki [1] was 0.0085 µM.
`CO[C@@H]1[C@@H](O)[C@@H](O)CN(S(=O)(=O)c2ccc(OCC#CCO)cc2)[C@H]1C(=O)NO` [Compound (f), (2R,3S,4S,5S)-4,5-dihydroxy-1-[4′-(4″-hydroxy-but-2′-ynyloxy)benzenesulfonyl]-3-methoxy-piperidine-2-carboxylic acid hydroxamide] showed a Ki (MMP-9) of over 0.79 µM, a Ki (MMP-1) of over 0.85 µM and a Ki (MMP-3) of over 0.65 µM. The Ki [1] was 0.018 µM.
